The target in one assay is T1, CDK9/CycT1 (Homo sapiens, UniProt P50750).
T1 construct: Recombinant full-length His-tagged human CDK9 and CycT1; His; purchased Invitrogen PV4131; host or cells: insect cells
Briefly: CDK9/CycT1 kinase assay (TR-FRET). Format: biochemical. The note with it: Method 1, 10 μM ATP. The text has this:
1. CDK9/CycT1 Kinase Assay:
CDK9/CycT1-inhibitory activity of compounds of the present invention was quantified employing the CDK9/CycT1 TR-FRET assay as described in the following paragraphs:
Recombinant full-length His-tagged human CDK9 and CycT1, expressed in insect cells and purified by Ni-NTA affinity chromatography, were purchased from Invitrogen (Cat. No PV4131). As substrate for the kinase reaction biotinylated peptide biotin-Ttds-[…] (C-terminus in amid form) was used which can be purchased e.g. form the company JERINI Peptide Technologies (Berlin, Germany). For the assay 50 nl of a 100fold concentrated solution of the test compound in DMSO was pipetted into a black low volume 384well microtiter plate (Greiner Bio-One, Frickenhausen, Germany), 2 μl of a solution of CDK9/CycT1 in aqueous assay buffer [50 mM Tris/HCl pH 8.0, 10 mM MgCl2, 1.0 mM dithiothreitol, 0.1 mM sodium ortho-vanadate, 0.01% (v/v) Nonidet-P40 (Sigma)] were added and the mixture was incubated for 15 min at 22° C. to allow pre-binding of the test compounds to the enzyme before the start of the kinase reaction. Then the kinase reaction was started by the addition of 3 μl of a solution of adenosine-tri-phosphate (ATP, 16.7 μM=>final conc. in the 5 μl assay volume is 10 μM) and substrate (1.67 μM=>final conc. in the 5 μl assay volume is 1 μM) in assay buffer and the resulting mixture was incubated for a reaction time of 25 min at 22° C. The concentration of CDK9/CycT1 was adjusted depending of the activity of the enzyme lot and was chosen appropriate to have the assay in the linear range, typical concentrations were in the range of 1 μg/ml. The reaction was stopped by the addition of 5 μl of a solution of TR-FRET detection reagents (0.2 μM streptavidine-XL665 [Cisbio Bioassays, Codolet, France] and 1 nM anti-RB(pSer807/pSer811)-antibody from BD Pharmingen [#558389] and 1.2 nM LANCE EU-W1024 labeled anti-mouse IgG antibody [Perkin-Elmer, product no. AD0077]) in an aqueous EDTA-solution (100 mM EDTA, 0.2% (w/v) bovine serum albumin in 100 mM HEPES/NaOH pH 7.0).
(§1) The resulting mixture was incubated 1 h at 22° C. to allow the formation of complex between the phosphorylated biotinylated peptide and the detection reagents. Subsequently the amount of phosphorylated substrate was evaluated by measurement of the resonance energy transfer from the Eu-chelate to the streptavidine-XL. Therefore, the fluorescence emissions at 620 nm and 665 nm after excitation at 350 nm was measured in a HTRF reader, e.g. a Rubystar (BMG Labtechnologies, Offenburg, Germany) or a Viewlux (Perkin-Elmer). The ratio of the emissions at 665 nm and at 622 nm was taken as the measure for the amount of phosphorylated substrate.
For orientation: TR-FRET usually uses a lanthanide donor and a delayed reading to cut background.

The target in a further assay is T2, CDK2/CycE (Homo sapiens, UniProt P24941).
T2 construct: GST; purchased ProQinase GmbH (Freiburg, Germany); host or cells: insect cells (Sf9)
Briefly: CDK2/CycE kinase assay (TR-FRET). The format is biochemical. The settings on record: Method 2, 10 μM ATP.
From the text: 2. CDK2/CycE Kinase Assay:
CDK2/CycE-inhibitory activity of compounds of the present invention was quantified employing the CDK2/CycE TR-FRET assay as described in the following paragraphs:
Recombinant fusion proteins of GST and human CDK2 and of GST and human CycE, expressed in insect cells (Sf9) and purified by Glutathion-Sepharose affinity chromatography, were purchased from ProQinase GmbH (Freiburg, Germany). As substrate for the kinase reaction biotinylated peptide biotin-Ttds-[…] (C-terminus in amid form) was used which can be purchased e.g. form the company JERINI Peptide Technologies (Berlin, Germany).
For the assay 50 nl of a 100fold concentrated solution of the test compound in DMSO was pipetted into a black low volume 384well microtiter plate (Greiner Bio-One, Frickenhausen, Germany), 2 μl of a solution of CDK2/CycE in aqueous assay buffer [50 mM Tris/HCl pH 8.0, 10 mM MgCl2, 1.0 mM dithiothreitol, 0.1 mM sodium ortho-vanadate, 0.01% (v/v) Nonidet-P40 (Sigma)] were added and the mixture was incubated for […] at 22° C. to allow pre-binding of the test compounds to the enzyme before the start of the kinase reaction. Then the kinase reaction was started by the addition of 3 μl of a solution of adenosine-tri-phosphate (ATP, 16.7 μM=>final conc. in the 5 it assay volume is 10 μM) and substrate (1.25 μM=>final conc. in the 5 it assay volume is 0.75 μM) in assay buffer and the resulting mixture was incubated for a reaction time of […] at 22° C. The concentration of CDK2/CycE was adjusted depending of the activity of the enzyme lot and was chosen appropriate to have the assay in the linear range, typical concentrations were in the range of 130 ng/ml. The reaction was stopped by the addition of 5 it of a solution of TR-FRET detection reagents (0.2 μM streptavidine-XL665 [Cisbio Bioassays, Codolet, France] and 1 nM anti-RB(pSer807/pSer811)-antibody from BD Pharmingen [#558389] and 1.2 nM LANCE EU-W1024 labeled anti-mouse IgG antibody [Perkin-Elmer, product no. AD0077]) in an aqueous EDTA-solution (100 mM EDTA, 0.2% (w/v) bovine serum albumin in 100 mM HEPES/NaOH pH 7.0).
as §1, with “TR-FRET” for “HTRF”

Assay [1] relates to HeLa human cervical tumour cells. The experiment in a line: Proliferation assay (crystal violet), HeLa. Format: cell-based. The settings on record: read-out: Inhibition of HeLa cell proliferation.

T1 sequence (P50750 whole entry): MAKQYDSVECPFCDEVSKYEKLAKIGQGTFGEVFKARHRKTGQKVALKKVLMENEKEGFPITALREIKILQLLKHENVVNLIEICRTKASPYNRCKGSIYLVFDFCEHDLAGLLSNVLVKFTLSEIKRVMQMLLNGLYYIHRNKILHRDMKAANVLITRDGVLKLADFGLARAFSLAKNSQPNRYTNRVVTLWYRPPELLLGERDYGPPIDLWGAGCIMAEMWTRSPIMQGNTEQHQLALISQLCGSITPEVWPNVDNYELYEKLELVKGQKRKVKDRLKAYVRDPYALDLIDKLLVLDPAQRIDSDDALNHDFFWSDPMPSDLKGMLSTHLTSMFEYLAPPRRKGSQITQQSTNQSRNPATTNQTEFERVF
T1 sequence (O60563 whole entry partner): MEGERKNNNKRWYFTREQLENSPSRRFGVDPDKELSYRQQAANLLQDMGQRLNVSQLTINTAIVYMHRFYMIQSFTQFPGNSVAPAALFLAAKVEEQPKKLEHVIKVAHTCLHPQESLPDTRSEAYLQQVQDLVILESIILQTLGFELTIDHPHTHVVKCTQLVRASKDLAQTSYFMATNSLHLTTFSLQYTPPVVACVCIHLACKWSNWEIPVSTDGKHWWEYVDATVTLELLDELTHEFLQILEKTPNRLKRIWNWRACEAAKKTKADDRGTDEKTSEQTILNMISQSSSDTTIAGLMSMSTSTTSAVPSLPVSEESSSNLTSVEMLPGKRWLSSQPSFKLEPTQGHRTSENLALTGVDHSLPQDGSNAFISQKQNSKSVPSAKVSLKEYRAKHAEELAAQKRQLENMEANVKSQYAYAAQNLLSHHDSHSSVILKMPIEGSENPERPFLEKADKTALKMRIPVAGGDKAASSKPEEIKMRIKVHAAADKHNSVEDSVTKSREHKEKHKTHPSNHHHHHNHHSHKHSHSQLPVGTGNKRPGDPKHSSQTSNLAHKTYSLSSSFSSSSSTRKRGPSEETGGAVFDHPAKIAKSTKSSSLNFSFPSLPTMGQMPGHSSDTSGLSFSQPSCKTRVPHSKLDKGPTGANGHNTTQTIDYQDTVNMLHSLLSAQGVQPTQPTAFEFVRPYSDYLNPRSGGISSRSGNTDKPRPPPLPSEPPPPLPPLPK

As to `CCCCCCOc1cc(F)ccc1-c1ncnc(Nc2cccc(CS(C)(=O)=O)c2)n1` [Example 46, 4-[4-Fluoro-2-(hexyloxy)phenyl]-N-{3-[(methylsulfonyl)methyl]phenyl}-1,3,5-triazin-2-amine], the IC50 came out at 15 nM on CDK9/CycT1, 2700 nM on CDK2/CycE and 2800 nM in assay [1].

On to `CS(=O)(=O)Cc1cccc(Nc2ncnc(-c3ccccc3OCc3ccc(F)cc3)n2)c1` [Example 25, 4-{2-[(4-Fluorobenzyl)oxy]phenyl}-N-{3-[(methylsulfonyl)methyl]phenyl}-1,3,5-triazin-2-amine], for which the IC50 was 7 nM at CDK9/CycT1, 1100 nM on CDK2/CycE and 760 nM in assay [1].

With `CS(=O)(=O)Cc1cccc(Nc2ncnc(-c3ccc(F)cc3OCCC3CCCC3)n2)c1` [Example 53, 4-[2-(2-Cyclopentylethoxy)-4-fluorophenyl]-N-{3-[(methylsulfonyl)methyl]phenyl}-1,3,5-triazin-2-amine], the IC50 came out at 16 nM at CDK9/CycT1, 950 nM at CDK2/CycE and 1300 nM in assay [1].

Turning to `CS(=O)(=O)Cc1cccc(Nc2ncnc(-c3ccc(F)cc3OCc3cccnc3)n2)c1` [Example 74, 4-[4-Fluoro-2-(pyridin-3-ylmethoxy)phenyl]-N-{3-[(methylsulfonyl)methyl]phenyl}-1,3,5-triazin-2-amine], the IC50 at CDK9/CycT1 was determined as 7 nM; on CDK2/CycE it was 570 nM; in assay [1] it was 1100 nM.

Consider `CC(C)CCOc1cc(F)ccc1-c1ncnc(Nc2cccc(CS(C)(=O)=O)c2)n1` [Example 52, 4-[4-Fluoro-2-(3-methylbutoxy)phenyl]-N-{3-[(methylsulfonyl)methyl]phenyl}-1,3,5-triazin-2-amine], for which the IC50 is 16 nM against CDK9/CycT1, 4000 nM against CDK2/CycE and 1200 nM in assay [1].

For `COc1cccc(COc2cc(F)ccc2-c2ncnc(Nc3cccc(CS(C)(=O)=O)c3)n2)c1` [Example 70, 4-{4-Fluoro-2-[(3-methoxybenzyl)oxy]phenyl}-N-{3-[(methylsulfonyl)-methyl]phenyl}-1,3,5-triazin-2-amine], the IC50 against CDK9/CycT1 amounted to 14 nM; against CDK2/CycE, 1100 nM; in assay [1] it was 1300 nM.

In the case of `COc1cc(F)ccc1-c1ncnc(Nc2cccc(CS(=O)(=O)CCO)c2)n1` [Example 14, 2-[(3-{[4-(4-Fluoro-2-methoxyphenyl)-1,3,5-triazin-2-yl]amino}benzyl)sulfonyl]ethanol], the IC50 was found to be 12 nM on CDK9/CycT1, 610 nM at CDK2/CycE and 600 nM in assay [1].

As for `CS(=O)(=O)Cc1cccc(Nc2ncnc(-c3ccc(F)cc3OCC3CCC3)n2)c1` [Example 56, 4-[2-(Cyclobutylmethoxy)-4-fluorophenyl]-N-{3-[(methylsulfonyl)methyl]phenyl}-1,3,5-triazin-2-amine], the figures for the IC50 (against CDK9/CycT1; at CDK2/CycE; in assay [1]) were 27 nM, 1400 nM and 1100 nM, respectively.

As to `CC1(COc2cc(F)ccc2-c2ncnc(Nc3cccc(CS(C)(=O)=O)c3)n2)CC1` [Example 49, 4-{4-Fluoro-2-[(1-methylcyclopropyl)methoxy]phenyl}-N-{3-[(methylsulfonyl)-methyl]phenyl}-1,3,5-triazin-2-amine], the IC50 came out at 11 nM against CDK9/CycT1, 640 nM against CDK2/CycE and 1200 nM in assay [1].

Regarding `CS(=O)(=O)Cc1cccc(Nc2ncnc(-c3ccc(F)cc3OCc3ccc(C(F)(F)F)cc3)n2)c1` [Example 73, 4-(4-Fluoro-2-{[4-(trifluoromethyl)benzyl]-oxy}phenyl)-N-{3-[(methylsulfonyl)-methyl]phenyl}-1,3,5-triazin-2-amine], the results for the IC50 (at CDK9/CycT1; against CDK2/CycE; in assay [1]) were 12 nM, no less than 20000 nM and 1100 nM, respectively.

Turning to `CS(=O)(=O)Cc1cccc(Nc2ncnc(-c3ccc(F)cc3OCc3cc(F)cc(C(F)(F)F)c3)n2)c1` [Example 78, 4-(4-Fluoro-2-{[3-fluoro-5-(trifluoromethyl)benzyl]oxy}phenyl)-N-{3-[(methylsulfonyl)-methyl]-phenyl}-1,3,5-triazin-2-amine], the IC50 on CDK9/CycT1 was found to be 4 nM; in assay [1], 950 nM.

On to `CS(=O)(=O)Cc1cccc(Nc2ncnc(-c3ccc(F)cc3OCc3cc(F)c(F)cc3F)n2)c1` [Example 75, 4-{4-Fluoro-2-[(2,4,5-trifluorobenzyl)oxy]phenyl}-N-{3-[(methylsulfonyl)-methyl]phenyl}-1,3,5-triazin-2-amine], for which the IC50 worked out at 6 nM against CDK9/CycT1 and 1100 nM in assay [1].

Turning to `CS(=O)(=O)Cc1cccc(Nc2ncnc(-c3ccc(F)cc3OCc3cc(F)ccc3F)n2)c1` [Example 81, 4-{2-[(2,5-Difluorobenzyl)-oxy]-4-fluorophenyl}-N-{3-[(methylsulfonyl)methyl]phenyl}-1,3,5-triazin-2-amine], the values for the IC50 (against CDK9/CycT1; in assay [1]) were 5 nM and 820 nM, respectively.

For `CCOCCOc1cc(F)ccc1-c1ncnc(Nc2cccc(CS(C)(=O)=O)c2)n1` [Example 51, 4-[2-(2-Ethoxyethoxy)-4-fluorophenyl]-N-{3-[(methylsulfonyl)methyl]phenyl}-1,3,5-triazin-2-amine], the figures for the IC50 against CDK9/CycT1 and at CDK2/CycE were 80 nM and 9400 nM, respectively.

Take `CC(C)Oc1cc(F)ccc1-c1ncnc(Nc2cccc(CS(C)(=O)=O)c2)n1` [Example 5, 4-[4-Fluoro-2-(propan-2-yloxy)phenyl]-N-{3-[(methylsulfonyl)methyl]phenyl}-1,3,5-triazin-2-amine]: the figures for the IC50 at CDK9/CycT1 and at CDK2/CycE were 25 nM and 1400 nM, respectively.

Take `COc1ccc(F)cc1-c1ncnc(Nc2cccc(CS(C)(=O)=O)c2)n1` [Example 11, 4-(5-Fluoro-2-methoxyphenyl)-N-{3-[(methylsulfonyl)methyl]phenyl}-1,3,5-triazin-2-amine]: the values for the IC50 at CDK9/CycT1 and on CDK2/CycE were 33 nM and 1300 nM, respectively.

(Values after patent publication US8916557B2, “Substituted 4-Aryl-N-phenyl-1,3,5-triazin-2-amines” (Bayer Intellectual Property GmbH, priority 2011, dated 2014).)
